These results are taken from ChEMBL document CHEMBL5338757, “Phototunable Cell Killing by Photochromic Diarylethene of Thiazoyl and Thienyl Derivatives” (J Med Chem, 2023).

The source made the active and inactive calls. No cut-off for these calls is given here.

For experiment [1], the system named is DNA. The experiment can be described thus: Binding affinity to DNA (unknown origin) upto 25 uM incubated for 24 hrs in presence of ethidium bromide by […]. The experiment is classed as nucleic-acid assay.
In experiment [2] the test system is DNA. The experiment can be described thus: Binding affinity to DNA (unknown origin) at 15 uM with 436 nm blue light irradiation incubated for 24 hrs by fluorescence based assay. The experiment is classed as nucleic-acid assay.
Experiment [3] has as its system HeLa. The experiment can be described thus: Phototoxicity against human HeLa cells assessed as BAK activation at 0.1 ppm with 436 nm blue light irradiation by Western blot analysis. The experiment is classed as functional, cell-based. The following applies: time 20.03 hrs.
The test system of experiment [4] is HeLa. The experiment can be described thus: Phototoxicity against human HeLa cells assessed as cell death at 0.02 to 5 ppm preincubated for 18 hrs under dark condition followed by medium replacement and 436 nm blue light irradiation for 2 mins and measured after 2 hrs by microscopic analysis. The experiment is classed as functional, cell-based. To be noted: dose 0.02-5 ppm, time 20.03 hrs.

Experiment [5] deals with HeLa. The experiment can be described thus: Phototoxicity against human HeLa cells assessed as cell rounding at 1 nM preincubated for 18 hrs under dark condition followed by medium replacement and 436 nm blue light irradiation for 2 mins and measured after 2 hrs by microscopic analysis. The experiment is classed as functional, cell-based. The following applies: time 20.03 hrs.

Experiment [6] deals with HeLa. Nature of the experiment: Phototoxicity against human HeLa cells assessed as cell shrinkage at 1 nM preincubated for 18 hrs under dark condition followed by medium replacement and 436 nm blue light irradiation for 2 mins and measured after 2 hrs by microscopic analysis. The experiment is classed as functional, cell-based. To be noted: time 20.03 hrs.
Experiment [7] relates to HeLa. The experiment can be described thus: Phototoxicity against human HeLa cells assessed as BAX activation at 0.1 ppm with 436 nm blue light irradiation by Western blot analysis. The experiment is classed as functional, cell-based. To be noted: time 20.03 hrs. On the technique in general: In western blotting, separated proteins are transferred to a membrane and probed.

For experiment [8], the system named is HeLa. Nature of the experiment: Phototoxicity against human HeLa cells assessed as caspase-3 activation at 0.1 ppm with 436 nm blue light irradiation by Western blot analysis. To be noted: time 20.03 hrs. The experiment is classed as functional, cell-based.
Experiment [9] concerns DNA. The experiment can be described thus: Binding affinity to DNA (unknown origin) assessed as redshift in absorption maxima at 15 uM with […] blue light irradiation incubated for 24 hrs by fluorescence based assay. The experiment is classed as nucleic-acid assay.
For experiment [10], the system named is HeLa. Nature of the experiment: Phototoxicity against human HeLa cells assessed as ATM kinase activation at 0.1 ppm with 436 nm blue light irradiation by Western blot analysis. The following applies: time 20.03 hrs. The experiment is classed as functional, cell-based.
In experiment [11] the test system is HeLa. Nature of the experiment: Phototoxicity against human HeLa cells assessed as CHK2 activation at 0.1 ppm with 436 nm blue light irradiation by Western blot analysis. The following applies: time 20.03 hrs. The experiment is classed as functional, cell-based.
The subject of experiment [12] is HeLa. The experiment can be described thus: Phototoxicity in human HeLa cells assessed as cell damage at 0.2 ppm irradiated with 546 nm green light. The experiment is classed as functional, cell-based.
The subject of experiment [13] is HeLa. The experiment can be described thus: Phototoxicity in human HeLa cells assessed as cell damage at 0.2 ppm pre-irradiated with 546 nm green light followed by 436 nm blue light irradiation. The experiment is classed as functional, cell-based.
The subject of experiment [14] is HeLa. The experiment can be described thus: Phototoxicity against human HeLa cells assessed as activation of BAX multiplication at 0.1 ppm with 436 nm blue light irradiation by Western blot analysis. The experiment is classed as functional, cell-based.
The subject of experiment [15] is HeLa. The experiment can be described thus: Phototoxicity against human HeLa cells assessed as CHK1 activation at 0.1 ppm with 436 nm blue light irradiation by Western blot analysis. To be noted: time 20.03 hrs. The experiment is classed as functional, cell-based.
Experiment [16] relates to HeLa. The experiment can be described thus: Phototoxicity against human HeLa cells assessed as gamma-H2AX activation at 0.1 ppm with 436 nm blue light irradiation by Western blot analysis. The experiment is classed as functional, cell-based. The following applies: time 20.03 hrs.
For experiment [17], the system named is HeLa. The experiment can be described thus: Phototoxicity against human HeLa cells assessed as cell death at 0.05 ppm incubated for 18 hrs followed by medium replacement and 436 nm blue light irradiation for 2 mins and measured after 2 hrs by microscopic analysis. The experiment is classed as functional, cell-based.
The test system of experiment [18] is HeLa. Nature of the experiment: Phototoxicity against human HeLa cells assessed as cell death at 5 ppm incubated for 18 hrs followed by medium replacement and 436 nm blue light irradiation for 2 mins and measured after 2 hrs by microscopic analysis. The experiment is classed as functional, cell-based. The following applies: time 20.03 hrs.
Experiment [19] concerns HeLa. The experiment can be described thus: Phototoxicity against human HeLa cells assessed as BAK activation at 1 ppm with 365 and 436 nm light irradiation by Western blot analysis. The experiment is classed as functional, cell-based.
Experiment [20] has as its system DNA. Nature of the experiment: Binding affinity to DNA (unknown origin) in aqueous media at 15 uM with 436 nm blue light irradiation incubated for 24 hrs by CD spectra analysis. The experiment is classed as nucleic-acid assay.
Experiment [21] deals with DNA. Nature of the experiment: Binding affinity to DNA (unknown origin) in aqueous media at 15 uM with > 546 nm blue light irradiation incubated for 24 hrs by CD spectra analysis. The experiment is classed as nucleic-acid assay.
The test system of experiment [22] is HeLa. Nature of the experiment: Phototoxicity against human HeLa cells assessed as gamma-H2AX activation at 1 ppm with 365 and 436 nm light irradiation by Western blot analysis. The experiment is classed as functional, cell-based.
Experiment [23] deals with HeLa. Nature of the experiment: Phototoxicity against human HeLa cells assessed as BAX activation at 1 ppm with 365 and 436 nm light irradiation by Western blot analysis. The experiment is classed as functional, cell-based.
In experiment [24] the test system is HeLa. Nature of the experiment: Phototoxicity against human HeLa cells assessed as cleaved caspase-3 activation at 1 ppm with 365 and 436 nm light irradiation by Western blot analysis. The experiment is classed as functional, cell-based. The following applies: time 18.0 hrs.
The test system of experiment [25] is HeLa. The experiment can be described thus: Phototoxicity against human HeLa cells assessed as cell death at 0.5 ppm preincubated for 1 day followed by UV irradiation for 20 sec. The experiment is classed as functional, cell-based. To be noted: time 86420.0 sec.
Experiment [26] concerns HeLa. The experiment can be described thus: Phototoxicity against human HeLa cells assessed as ATM kinase activation at 1 ppm with 365 and 436 nm light irradiation by Western blot analysis. The experiment is classed as functional, cell-based.
For experiment [27], the system named is DNA. The experiment can be described thus: Binding affinity to DNA (unknown origin) in aqueous media at 15 uM at 436 nm blue light irradiation incubated for 24 hrs by fluorescence based assay. The experiment is classed as nucleic-acid assay.

For the compound `CC12SC(c3ccccc3)=NC1=C1C(=C3N=C(c4ccccc4)SC32C)C(F)(F)C(F)(F)C1(F)F` (stereo not given), in the experiment with DNA [1], the KSV is 27 10^3/M. The result in the experiment on DNA [2], in the experiment on HeLa [3], in the experiment with HeLa [4], in the experiment on HeLa [5], with HeLa [6] and with HeLa [7] was Active. Also, the outcome in the experiment with HeLa [8], in the experiment with DNA [9], with HeLa [10], with HeLa [11], in the experiment on HeLa [12] and in the experiment on HeLa [13] was Active. For the same compound, the result in the experiment with HeLa [14], with HeLa [15] and with HeLa [16] was Active.

As to `CC12C=C(c3ccccc3)SC1=C1C(=C3SC(c4ccccc4)=CC32C)C(F)(F)C(F)(F)C1(F)F` (stereo not given), the outcome with HeLa [17] was Active.

Turning to `Cc1sc(-c2ccccc2)cc1C1=C(c2nc(-c3ccccc3)sc2C)C(F)(F)C(F)(F)C1(F)F`, the KSV in the experiment with DNA [1] was 1.6 10^3/M. Further, the result in the experiment on DNA [2] and in the experiment with DNA [9] was Active.

As for `C[C@]12SC(c3ccccc3)=CC1=C1C(=C3N=C(c4ccccc4)S[C@@]32C)C(F)(F)C(F)(F)C1(F)F`, in the experiment on DNA [1], the KSV is 27 10^3/M. Also, the outcome with DNA [2], in the experiment with HeLa [4] and in the experiment with DNA [9] was Active.

Take `CC12C=C(c3ccccc3)SC1=C1C(=C3SC(c4ccccc4)=NC32C)C(F)(F)C(F)(F)C1(F)F` (stereo not given): the result in the experiment on HeLa [17] was Active.

Turning to `CC12N=C(c3ccccc3)SC1=C1C(=C3SC(c4ccccc4)=NC32C)C(F)(F)C(F)(F)C1(F)F` (stereo not given), the outcome in the experiment on HeLa [17] was Active.

Consider `Cc1cc(-c2ccccc2)sc1C1=C(c2sc(-c3ccccc3)nc2C)C(F)(F)C(F)(F)C1(F)F`, for which, in the experiment on HeLa [18], the result was inactive.

`Cc1sc(-c2ccccc2)nc1C1=C(c2nc(-c3ccccc3)sc2C)C(F)(F)C(F)(F)C1(F)F`: the result in the experiment on HeLa [19], with DNA [21], in the experiment with HeLa [22], in the experiment on HeLa [4], in the experiment with HeLa [23] and in the experiment with HeLa [24] was inactive. Further, the result in the experiment on HeLa [25] and with HeLa [26] was inactive. Further, the KSV in the experiment on DNA [1] was 1.6 10^3/M. Further, the outcome with DNA [20], in the experiment with DNA [2], in the experiment on DNA [9] and in the experiment with DNA [27] was Active.

As to `CC12SC(c3ccccc3)=CC1=C1C(=C3C=C(c4ccccc4)SC32C)C(F)(F)C(F)(F)C1(F)F` (stereo not given), in the experiment with DNA [1], the KSV is 27 10^3/M. For the same compound, the result with DNA [2] was Active. The result in the experiment with HeLa [4] and with DNA [9] was inactive.

As for `Cc1cc(-c2ccccc2)sc1C1=C(c2sc(-c3ccccc3)cc2C)C(F)(F)C(F)(F)C1(F)F`, the outcome with HeLa [18] was inactive.

With `Cc1sc(-c2ccccc2)cc1C1=C(c2cc(-c3ccccc3)sc2C)C(F)(F)C(F)(F)C1(F)F`, in the experiment with DNA [1], the KSV was 1.6 10^3/M. Further, the result in the experiment on DNA [2] was Active. Further, the result in the experiment on HeLa [4] and in the experiment on DNA [9] was inactive.

Regarding `Cc1nc(-c2ccccc2)sc1C1=C(c2sc(-c3ccccc3)nc2C)C(F)(F)C(F)(F)C1(F)F`, in the experiment with HeLa [18], the outcome was inactive.
